Data: ChEMBL document CHEMBL1136870, “Synthesis of aristolactam analogues and evaluation of their antitumor activity” (2009)

How the values were obtained:
Format in all cases: functional
A-431 = test: Antiproliferative activity against human A431 cells by SRB assay
SK-OV-3 = test: Antiproliferative activity against human SKOV3 cells by SRB assay
BT-474 = test: Antiproliferative activity against human BT474 cells by SRB assay
MDA-MB-231 = test: Antiproliferative activity against human MDA-MB-231 cells by SRB assay
A549 = test: Antiproliferative activity against human A549 cells by SRB assay
HCT-15 = test: Antiproliferative activity against human HCT15 cells by SRB assay
[1] = Antiproliferative activity against human MESSA cells by SRB assay; settings: MES-SA
[2] = Antiproliferative activity against multidrug resistant human MES-SA/Dx5 cells by SRB assay
[3] = Antiproliferative activity against multidrug resistant human HCT15/CLO2 cells by SRB assay; settings: HCT-15

SMILES | GI50 (A-431) | GI50 (SK-OV-3) | GI50 (BT-474) | GI50 (MDA-MB-231) | GI50 (A549) | GI50 (HCT-15) | GI50 [1] | GI50 [2] | GI50 [3]
COc1cc2c3c(cc4ccccc4c3c1OC)N(CCc1ccccc1)C2=O | 23.7 µM | 13.4 µM | 12.8 µM | > 30 µM |  |  |  |  | 
Cc1c2c3c(cccc3c3ccccc13)C(=O)N2C | 2.83 µM | 13.1 µM |  |  | 1.62 µM | 3.79 µM |  |  | 
COc1cc2c3c(cc4ccccc4c3c1OC)N(C)C2=O | 5.75 µM | 3.42 µM |  |  |  | 8.47 µM | 3840 nM | 9.52 µM | 8.61 µM
COc1cc2c3c(cc4cc(Cl)ccc4c3c1OC)N(C)C2=O |  |  |  |  |  | 2.94 µM | > 30000 nM | > 30 µM | 17.9 µM
COc1cc2c3c(cc4ccc(C)cc4c3c1OC)N(C)C2=O |  |  |  |  |  | 1.53 µM | > 30000 nM | > 30 µM | 1.46 µM
COc1ccc(N2C(=O)c3cc(OC)c(OC)c4c3c2cc2ccccc24)cc1 | 32.5 µM | 16.2 µM | 23.7 µM | > 30 µM |  |  |  |  | 
COc1cc2c3c(cc4c5c(ccc4c3c1OC)OCO5)N(CCN1CCCCC1)C2=O | < 0.1 µM | < 0.1 µM |  |  | < 0.1 µM | 0.1 µM | < 100 nM | < 0.1 µM | 0.14 µM
COc1cc2c3c(cc4ccccc4c3c1OC)N(CC1CC1)C2=O | 27.1 µM | 24.2 µM | 23 µM | > 30 µM |  |  |  |  | 
COc1cc2c3c(cc4cc(Cl)ccc4c3c1OC)N(CCN1CCCCC1)C2=O | 0.18 µM | 0.91 µM |  |  | 0.26 µM | 0.92 µM | 590 nM | 0.61 µM | 0.83 µM
COc1cc2c3c(cc4ccccc4c3c1OC)N(Cc1ccncc1)C2=O | > 30 µM | 9.94 µM |  |  |  |  |  |  | 
COc1cc2c3c(cc4ccccc4c3c1OC)N(CCN1CCCCC1)C2=O | 1.29 µM | 0.95 µM |  |  | 0.95 µM | 1.73 µM | 1460 nM | 1.51 µM | 1.58 µM
COc1ccc2c(c1)cc1c3c(cc(OC)c(OC)c32)C(=O)N1C |  |  |  |  |  | 0.3 µM | 1220 nM | 0.76 µM | 0.16 µM
CN1C(=O)c2cccc3c2c1cc1ccccc13 | 8.02 µM | 4.26 µM |  |  | 1.54 µM | 4.21 µM | 1810 nM | 3.56 µM | 5.72 µM
COc1cc2c3c(c(C)c4ccccc4c3c1OC)N(C)C2=O | > 30 µM | > 30 µM |  |  |  |  |  |  | 
COc1cc2c3c(cc4c5c(ccc4c3c1OC)OCO5)N(CCN(C)C)C2=O | < 0.0001 µM | < 0.1 µM |  |  | < 0.1 µM | < 0.0001 µM | < 0.1 nM | < 0.0001 µM | 0.0095 µM
COc1cc2cc3c4c(cc(OC)c(OC)c4c2cc1OC)C(=O)N3C |  |  |  |  |  | 0.06 µM | 1050 nM | 1.01 µM | 0.07 µM
CCN1C(=O)c2cc(OC)c(OC)c3c2c1cc1ccccc13 | 10.9 µM | 5.45 µM | 4.16 µM | 9.37 µM |  |  |  |  | 
COc1cc2c3c(cc4ccccc4c3c1OC)N(c1ccc(C(C)(C)C)cc1)C2=O | 3.51 µM | 6.04 µM | 11.1 µM | 18.2 µM |  |  |  |  | 
COc1ccc2cc3c4c(cc(OC)c(OC)c4c2c1)C(=O)N3CCN1CCCCC1 | 2.95 µM | 6.72 µM |  |  | 4.1 µM | 5.91 µM |  |  | 
COc1ccc2cc3c4c(cc(OC)c(OC)c4c2c1)C(=O)N3 [ARISTOLACTAM BIII] |  |  |  |  |  | 3.74 µM | 2700 nM | 2.82 µM | 3.35 µM
COc1cc2c3c(cc4ccccc4c3c1O)N(C)C2=O [N-METHYL PIPEROLACTAM A] |  |  |  |  |  | 12.8 µM | 14500 nM | 14.5 µM | 10.8 µM
CC(=O)O[C@H]1C(=O)[C@@]2(C)[C@H]([C@H](OC(=O)c3ccccc3)[C@]3(O)C[C@H](OC(=O)[C@H](O)[C@@H](NC(=O)c4ccccc4)c4ccccc4)C(C)=C1C3(C)C)[C@]1(OC(C)=O)CO[C@@H]1C[C@@H]2O [PACLITAXEL] | < 1e-05 µM |  |  |  |  | 0.011 µM | < 0.01 nM | 0.16 µM | 0.83 µM
COc1cc2c3c(cc4ccccc4c3c1O)NC2=O [PIPEROLACTAM A] |  |  |  |  |  | > 30 µM | > 30000 nM | 27 µM | > 30 µM
COc1c(O)cc2c3c(cc4ccccc4c13)N(C)C2=O [SAURISTOLACTAM] |  |  |  |  |  | 4.1 µM | 23800 nM | 23.1 µM | 4.38 µM

Continued, in another order:

GI50 (A-431) | GI50 (SK-OV-3) | GI50 (BT-474) | GI50 (MDA-MB-231) | GI50 (A549) | GI50 (HCT-15) | SMILES | GI50 [1] | GI50 [2] | GI50 [3]
0.18 µM | 0.33 µM |  |  | 0.18 µM | 0.27 µM | COc1cc2c3c(c(C)c4ccccc4c3c1OC)N(CCN1CCCCC1)C2=O |  |  | 
 |  |  |  |  | 5.93 µM | COc1cc2c3c(cc4cc5c(cc4c3c1OC)OCO5)N(C)C2=O | 27100 nM | 18.9 µM | 1.64 µM
> 30 µM | > 30 µM | > 30 µM | > 30 µM |  |  | C#CCN1C(=O)c2cc(OC)c(OC)c3c2c1cc1ccccc13 |  |  | 
> 30 µM | 23.8 µM | > 30 µM | > 30 µM |  |  | COc1cc2c3c(cc4ccccc4c3c1OC)N(Cc1cccs1)C2=O |  |  | 
1.19 µM | 1.71 µM |  |  | 1.54 µM | 4.22 µM | COc1cc2cc3c4c(cc(OC)c(OC)c4c2cc1OC)C(=O)N3CCN1CCCCC1 |  |  | 
> 30 µM | 19.4 µM | 20.6 µM | > 30 µM |  |  | COc1cc2c3c(cc4ccccc4c3c1OC)N(C(C)C)C2=O |  |  | 
> 30 µM | 24.3 µM | 22.5 µM | > 30 µM |  |  | COCCN1C(=O)c2cc(OC)c(OC)c3c2c1cc1ccccc13 |  |  | 
0.15 µM | 0.33 µM |  |  | 0.19 µM | 0.72 µM | COc1cc2cc3c4c(cc(OC)c(OC)c4c2cc1OC)C(=O)N3CCN(C)C | 390 nM | 0.51 µM | 0.57 µM
4.64 µM | 5.49 µM |  |  |  |  | COc1cc2c3c(cc4ccccc4c3c1OC)N(CCN1CCOCC1)C2=O |  |  | 
 |  |  |  |  | > 30 µM | COc1cc2c3c(cc4ccccc4c3c1OC)NC2=O [CEPHARANONE B] | > 30000 nM | > 30 µM | > 30 µM
0.0012 µM | 0.021 µM |  |  | 0.003 µM | 0.19 µM | COc1cccc2c1C(=O)c1c(O)c3c(c(O)c1C2=O)C[C@@](O)(C(=O)CO)C[C@@H]3O[C@H]1C[C@H](N)[C@H](O)[C@H](C)O1 [DOXORUBICIN] | 5.1 nM | 0.93 µM | 7.92 µM
 |  |  |  |  | 1.25 µM | COc1cc([C@@H]2c3cc4c(cc3[C@@H](O[C@@H]3O[C@@H]5CO[C@@H](C)O[C@H]5[C@H](O)[C@H]3O)[C@H]3COC(=O)[C@H]23)OCO4)cc(OC)c1O [ETOPOSIDE] | 210 nM | 9.72 µM | 10 µM
